According to patent US20050229276A1, “Method of producing cyclamen root tuber and method of proliferating cyclamen using the same” (Tokyo University of Agricultural, priority 2002, published 2005):

System: cyclamen (cultivar: Dressy Scarlet) seedling
Test: Growth of root tubers at cut root ends of seedlings in solid media
Type: in vivo
Procedure: A cyclamen (cultivar: Dressy Scarlet) seed was immersed in an ethyl alcohol aqueous solution having an ethyl alcohol concentration of 70 wt % for 10 seconds and in a sodium hypochlorite solution having an effective chlorine concentration of 1 wt % for 10 minutes to sterilize the surface of the seed. Thereafter, this seed was washed in sterilized water 3 times to remove the sodium hypochlorite from the surface of the seed. This was sown in an MS solid medium containing 30 g/l of sucrose and 6 g/l of agar under a germ-free condition and cultured at a temperature of 20° C. under weak light for 30 days to be germinated and rooted.
The end portions of the roots of the above germinated and rooted cyclamen seedling were cut off with a scalpel, and the seedling was planted in the following solid media. As the media, a large number of experimental plots were prepared by adding NAA and BA as phytohormones to the ⅓ MS medium in concentrations shown in Tables 1 to 3 and further adding 30 to 90 g/l of sucrose. 6 g/l of agar was added to all of the media which were then sterilized in an autoclave to prepare media having a pH of 7.0. 10 ml of each of the solid media was placed in a 50 ml culture test tube. The stationary culture of the seedling planted in each of the media was carried out at 20° C. under weak light for a certain number of days to grow root tubers at the end portions of its roots.

[1] = sucrose 30 g/l, BA 0.1 mg/l, NAA 0.00 mg/l, 30-th day
[2] = sucrose 30 g/l, BA 0.1 mg/l, NAA 0.01 mg/l, 30-th day
[3] = sucrose 30 g/l, BA 0.1 mg/l, NAA 0.05 mg/l, 30-th day
[4] = sucrose 30 g/l, BA 1.0 mg/l, NAA 0.00 mg/l, 30-th day
[5] = sucrose 30 g/l, BA 1.0 mg/l, NAA 0.01 mg/l, 30-th day
[6] = sucrose 30 g/l, BA 1.0 mg/l, NAA 0.05 mg/l, 30-th day
[7] = sucrose 30 g/l, BA 10.0 mg/l, NAA 0.00 mg/l, 30-th day
[8] = sucrose 30 g/l, BA 10.0 mg/l, NAA 0.01 mg/l, 30-th day
[9] = sucrose 30 g/l, BA 10.0 mg/l, NAA 0.05 mg/l, 30-th day
[10] = sucrose 50 g/l, BA 0.1 mg/l, NAA 0.00 mg/l, 30-th day
[11] = sucrose 50 g/l, BA 0.1 mg/l, NAA 0.01 mg/l, 30-th day
[12] = sucrose 50 g/l, BA 0.1 mg/l, NAA 0.05 mg/l, 30-th day

With `c1ccc(CNc2ncnc3[nH]cnc23)cc1` [BA, benzylaminopurine] the “Number of grown root tubers” value (BA 0.0 mg/l, sucrose 30 g/l, NAA 0.05 mg/l, 23 roots cut off, 30-th day) was 23, the “Enlarging ratio (diameter of root tuber vs root at start = 1)” value (from here on “Enlarging ratio”) (BA 0.0 mg/l, sucrose 30 g/l, NAA 0.05 mg/l, 30-th day) was 8.4 and the “Number of grown root tubers” value (BA 0.1 mg/l, sucrose 30 g/l, NAA 0.05 mg/l, 17 roots cut off, 30-th day) was 17. For the same compound, the “Enlarging ratio” value (BA 0.1 mg/l, sucrose 30 g/l, NAA 0.05 mg/l, 30-th day) was 2.3, the “Number of grown root tubers” value (BA 0.1 mg/l, sucrose 50 g/l, NAA 0.05 mg/l, 17 roots cut off, 30-th day) was 16 and the “Enlarging ratio” value (BA 0.1 mg/l, sucrose 50 g/l, NAA 0.05 mg/l, 30-th day) was 3.2. For the same compound, the “Number of grown root tubers” value (BA 0.1 mg/l, sucrose 70 g/l, NAA 0.05 mg/l, 21 roots cut off, 30-th day) was 21, the “Enlarging ratio” value (BA 0.1 mg/l, sucrose 70 g/l, NAA 0.05 mg/l, 30-th day) was 3.8 and the “Number of grown root tubers” value (BA 0.1 mg/l, sucrose 90 g/l, NAA 0.05 mg/l, 18 roots cut off, 30-th day) was 18. The “Enlarging ratio” value (BA 0.1 mg/l, sucrose 90 g/l, NAA 0.05 mg/l, 30-th day) was 5.0, the “Number of grown root tubers” value (BA 0.5 mg/l, sucrose 30 g/l, NAA 0.05 mg/l, 20 roots cut off, 30-th day) was 20 and the “Enlarging ratio” value (BA 0.5 mg/l, sucrose 30 g/l, NAA 0.05 mg/l, 30-th day) was 6.6. The “Number of grown root tubers” value (BA 0.5 mg/l, sucrose 50 g/l, NAA 0.05 mg/l, 21 roots cut off, 30-th day) was 20, the “Enlarging ratio” value (BA 0.5 mg/l, sucrose 50 g/l, NAA 0.05 mg/l, 30-th day) was 9.5 and the “Number of grown root tubers” value (BA 0.5 mg/l, sucrose 70 g/l, NAA 0.05 mg/l, 25 roots cut off, 30-th day) was 25. For the same compound, the “Enlarging ratio” value (BA 0.5 mg/l, sucrose 70 g/l, NAA 0.05 mg/l, 30-th day) was 7.2, the “Number of grown root tubers” value (BA 0.5 mg/l, sucrose 90 g/l, NAA 0.05 mg/l, 16 roots cut off, 30-th day) was 16 and the “Enlarging ratio” value (BA 0.5 mg/l, sucrose 90 g/l, NAA 0.05 mg/l, 30-th day) was 6.0. For the same compound, the “Number of grown root tubers” value (BA 1.0 mg/l, sucrose 50 g/l, NAA 0.05 mg/l, 24 roots cut off, 30-th day) was 23, the “Enlarging ratio” value (BA 1.0 mg/l, sucrose 50 g/l, NAA 0.05 mg/l, 30-th day) was 6.3 and the “Number of grown root tubers” value (BA 1.0 mg/l, sucrose 70 g/l, NAA 0.05 mg/l, 17 roots cut off, 30-th day) was 17. For the same compound, the “Enlarging ratio” value (BA 1.0 mg/l, sucrose 70 g/l, NAA 0.05 mg/l, 30-th day) was 5.4, the “Number of grown root tubers” value (BA 1.0 mg/l, sucrose 90 g/l, NAA 0.05 mg/l, 4 roots cut off, 30-th day) was 3 and the “Enlarging ratio” value (BA 1.0 mg/l, sucrose 90 g/l, NAA 0.05 mg/l, 30-th day) was 3.8. For the same compound, the “Number of large root tubers (diameter of 1 mm or more)” value (“Number of large root tubers” for short) [1] was 4, the “Total number of root tubers” value [1] was 18 and the “Number of large root tubers” value [2] was 5. For the same compound, the “Total number of root tubers” value [2] was 15, the “Number of large root tubers” value [3] was 5 and the “Total number of root tubers” value [3] was 15. The “Number of large root tubers” value [4] was 2, the “Total number of root tubers” value [4] was 6 and the “Number of large root tubers” value [5] was 3. The “Total number of root tubers” value [5] was 5, the “Number of large root tubers” value [6] was 6 and the “Total number of root tubers” value [6] was 7. For the same compound, the “Number of large root tubers” value [7] was 6, the “Total number of root tubers” value [7] was 11 and the “Number of large root tubers” value [8] was 5. The “Total number of root tubers” value [8] was 5, the “Number of large root tubers” value [9] was 4 and the “Total number of root tubers” value [9] was 8. For the same compound, the “Number of large root tubers” value [10] was 1, the “Total number of root tubers” value [10] was 2 and the “Number of large root tubers” value [11] was 0. For the same compound, the “Total number of root tubers” value [11] was 1, the “Average number of root tubers (per a seedling)” value [12] was 2.8 and the “Number of large root tubers” value [12] was 7. The “Total number of root tubers” value [12] was 14 and the “Average number of root tubers (per a seedling)” value (sucrose 50 g/l, BA 0.1 mg/l, NAA 0.05 mg/l, 50-th day) was 2.8.
